The test has as its target T1, P2X4 (Homo sapiens, UniProt Q99571).
T1 sequence (Q99571 1-388): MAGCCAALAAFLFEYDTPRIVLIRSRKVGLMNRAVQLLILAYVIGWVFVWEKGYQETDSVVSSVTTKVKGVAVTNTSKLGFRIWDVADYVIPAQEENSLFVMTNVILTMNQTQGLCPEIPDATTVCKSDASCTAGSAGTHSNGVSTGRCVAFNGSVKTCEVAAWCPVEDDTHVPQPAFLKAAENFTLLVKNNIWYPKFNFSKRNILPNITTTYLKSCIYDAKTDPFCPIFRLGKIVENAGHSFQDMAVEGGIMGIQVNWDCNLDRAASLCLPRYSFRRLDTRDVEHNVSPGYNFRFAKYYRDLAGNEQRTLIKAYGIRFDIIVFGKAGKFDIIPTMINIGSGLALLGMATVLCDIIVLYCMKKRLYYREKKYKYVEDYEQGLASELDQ
The test can be described thus: Assay B: human P2X4 receptor cell line, mitochondrial photina luminescence (agonist Bz-ATP at EC50). The conditions noted are these: HEK human P2X4 cell line, photina luminescence, agonist Bz-ATP at EC50, average; for Emax: read-out: human P2X4 Assay B avg Efficacy. Format: cell-based. The arrangement: host or cells: HEK 293 (recombinant, constitutively expressing; with mitochondrial photina in Assay B). As for the experimental part:
The identification of agonists and antagonists of the P2X4 receptor from humans and […] also the quantification of the activity of the compounds of the invention was performed by use of recombinant cell lines. […] The test cell lines constitutively express the mouse or human P2X4 receptors. Stimulation of the receptors with an agonist leads to a conformational change of P2X4 and influx of extracellular calcium ions through the ion channel. The cytoplasmatic calcium transient is detected via the calcium sensitive dye Fluo8 for the mouse P2×4 cell line or in case of the human P2×4 cell line a stably expressed calcium-sensitive photoprotein, mitochondrial photina, which, after reconstitution with the cofactor coelenterazine, emits light in dependence of calcium binding [Bovolenta S, Foti M, Lohmer S, Corazza S., J Biomol Screen. […] The strength of Fluo8 fluorescence signal or photina luminescence signal corresponds to the level of receptor activation. An inhibitor would decrease the signal depending on its potency and concentration.
The resulting light signal is measured immediately in the luminometer.

IC50 and Emax data for 29 molecules are collected here from patent publication US20180338980A1, “AROMATIC SULFONAMIDE DERIVATIVES” (BAYER PHARMA AKTIENGESELLSCHAFT, priority 2015, published 2018).

By IC50 is commonly meant the midpoint of a concentration-inhibition curve.

Regarding `Cc1ccc(CC(=O)Nc2ccc(Oc3cccc(Cl)c3)c(S(N)(=O)=O)c2)nc1` [Example 193, N-[4-(3-Chlorophenoxy)-3-sulfamoylphenyl]-2-(5-methylpyridin-2-yl)acetamide], the IC50 came to 1060 nM and the Emax was determined as 79%.

Consider `N#Cc1ccccc1CC(=O)Nc1ccc(Oc2cccc(Cl)c2)c(S(N)(=O)=O)c1` [Example 225, N-[4-(3-Chlorophenoxy)-3-sulfamoylphenyl]-2-(2-cyanophenyl)acetamide], for which the concentration for half-maximal inhibition (IC50) was 192 nM and the Emax is 98%.

On to `Cn1ccc(Oc2ccc(NC(=O)Cc3ccccc3Cl)cc2S(N)(=O)=O)n1` [Example 236, 2-(2-Chlorophenyl)-N-{4-[(1-methyl-1H-pyrazol-3-yl)oxy]-3-sulfamoylphenyl}acetamide], for which the IC50 amounted to 232 nM and the Emax was 77%.

In the case of `NS(=O)(=O)c1cc(NC(=O)Cc2cc(C(F)(F)F)ccc2Cl)ccc1Oc1cccc(Cl)c1` [Example 109, N-[4-(3-Chlorophenoxy)-3-sulfamoylphenyl]-2-[2-chloro-5-(trifluoromethyl)phenyl]acetamide], the IC50 was 825 nM and the Emax was 56%.

Turning to `NS(=O)(=O)c1cc(NC(=O)Cc2ccc(C(F)(F)F)cc2)ccc1Oc1ccccc1OC(F)(F)F` [Example 072, N-{3-Sulfamoyl-4-[2-(trifluoromethoxy)phenoxy]phenyl}-2-[4-(trifluoromethyl)phenyl]acetamide], the IC50 came out at 2960 nM and the Emax is 63%.

In the case of `Cc1ccccc1CC(=O)Nc1cc(F)c(Oc2cccc(Cl)c2)c(S(N)(=O)=O)c1` [Example 171, N-[4-(3-Chlorophenoxy)-3-fluoro-5-sulfamoylphenyl]-2-(2-methylphenyl)acetamide], the IC50 was 4910 nM and the Emax was found to be 65%.

`CC(C)c1ccccc1CC(=O)Nc1ccc(Oc2cccc(Cl)c2)c(S(N)(=O)=O)c1` [Example 087, N-[4-(3-Chlorophenoxy)-3-sulfamoylphenyl]-2-(2-isopropylphenyl)acetamide]: the 50% inhibitory concentration (IC50) was 196 nM and the Emax worked out at 76%.

Regarding `N#Cc1cc(C#N)cc(Oc2ccc(NC(=O)Cc3ccccc3Cl)cc2S(N)(=O)=O)c1` [Example 033, 2-(2-Chlorophenyl)-N-[4-(3,5-dicyanophenoxy)-3-sulfamoylphenyl]acetamide], the concentration for half-maximal inhibition (IC50) came to 6750 nM and the Emax amounted to 75%.

Turning to `COc1cccc(Oc2ccc(NC(=O)Cc3ccccc3)cc2S(N)(=O)=O)c1` [Example 250, N-[4-(3-Methoxyphenoxy)-3-sulfamoylphenyl]-2-phenylacetamide], the IC50 came out at 439 nM and the Emax was 82%.

Consider `NS(=O)(=O)c1cc(NC(=O)Cc2ccccc2Cl)ccc1Oc1cccc(C(=O)N2CCCCC2)c1` [Example 067, 2-(2-chlorophenyl)-N-{4-[3-(piperidin-1-ylcarbonyl)phenoxy]-3-sulfamoylphenyl}acetamide], for which the IC50 came to 241 nM and the Emax was 72%.

As to `NS(=O)(=O)c1cc(NC(=O)Cc2ccccc2)ccc1Oc1cncc(Cl)c1` [Example 078, N-{4-[(5-Chloropyridin-3-yl)oxy]-3-sulfamoylphenyl}-2-phenylacetamide], the IC50 is 706 nM and the Emax worked out at 86%.

For `NS(=O)(=O)c1cc(NC(=O)Cc2ccccc2Cl)ccc1Oc1cccc(-c2nnn[nH]2)c1` [Example 021, 2-(2-Chlorophenyl)-N-{3-sulfamoyl-4-[3-(1H-tetrazol-5-yl)phenoxy]phenyl}acetamide], the concentration for half-maximal inhibition (IC50) turned out to be 3860 nM and the Emax turned out to be 60%.

Take `CS(=O)(=O)c1ccc(COc2ccc(NC(=O)Cc3ccccc3Cl)cc2S(N)(=O)=O)cc1` [Example 147, 2-(2-Chlorophenyl)-N-(4-{[4-(methylsulfonyl)benzyl]oxy}-3-sulfamoylphenyl)acetamide]: the half-maximal inhibitory concentration (IC50) came to 1270 nM and the Emax is 69%.

For the molecule `NS(=O)(=O)c1cc(NC(=O)Cc2c(C(F)(F)F)ccc(Cl)c2Cl)ccc1Oc1cccc(Cl)c1` [Example 127, N-[4-(3-chlorophenoxy)-3-sulfamoylphenyl]-2-[2,3-dichloro-6-(trifluoromethyl)phenyl]acetamide], the IC50 turned out to be 1050 nM and the Emax was found to be 66%.

As to `Cc1sc(-c2cccnc2)nc1Oc1ccc(NC(=O)Cc2ccccc2Cl)cc1S(N)(=O)=O` [Example 239, 2-(2-Chlorophenyl)-N-(4-{[5-methyl-2-(pyridin-3-yl)-1,3-thiazol-4-yl]oxy}-3-sulfamoylphenyl)acetamide], the concentration for half-maximal inhibition (IC50) was found to be 152 nM and the Emax is 99%.

With `NS(=O)(=O)c1cc(NC(=O)Cc2ccccc2)ccc1Oc1cccc(F)c1` [Example 249, N-[4-(3-Fluorophenoxy)-3-sulfamoylphenyl]-2-phenylacetamide], the IC50 was 544 nM and the Emax was 73%.

As to `NS(=O)(=O)c1cc(NC(=O)Cc2cccc(Cl)c2)ccc1Oc1cccc(Cl)c1` [Example 186, N-[4-(3-Chlorophenoxy)-3-sulfamoylphenyl]-2-(3-chlorophenyl)acetamide], the half-inhibitory concentration (IC50) amounted to 462 nM and the Emax worked out at 97%.

`NS(=O)(=O)c1cc(NC(=O)Cc2ccccc2)ccc1OC1CCCC1` [Example 217, N-[4-(Cyclopentyloxy)-3-sulfamoylphenyl]-2-phenylacetamide]: the IC50 came out at 4030 nM and the Emax stood at 67%.

Take `NS(=O)(=O)c1cc(NC(=O)Cc2ccccc2)ccc1OCC1CC1` [Example 245, N-[4-(Cyclopropylmethoxy)-3-sulfamoylphenyl]-2-phenylacetamide]: the half-inhibitory concentration (IC50) was 5970 nM and the Emax turned out to be 68%.

As for `NS(=O)(=O)c1cc(NC(=O)Cc2cccc(F)c2)ccc1Oc1cccc(Cl)c1` [Example 084, N-[4-(3-Chlorophenoxy)-3-sulfamoylphenyl]-2-(3-fluorophenyl)acetamide], the half-inhibitory concentration (IC50) was 213 nM and the Emax came out at 57%.

Turning to `NS(=O)(=O)c1cc(NC(=O)Cc2ccccc2Cl)ccc1OC1CCCC1` [Example 218, 2-(2-Chlorophenyl)-N-[4-(cyclopentyloxy)-3-sulfamoylphenyl]acetamide], the half-maximal inhibitory concentration (IC50) amounted to 248 nM and the Emax stood at 80%.

With `Cc1ccc(F)c(Oc2ccc(NC(=O)Cc3ccccc3)cc2S(N)(=O)=O)c1` [Example 251, N-[4-(2-Fluoro-5-methylphenoxy)-3-sulfamoylphenyl]-2-phenylacetamide], the IC50 came to 392 nM and the Emax stood at 100%.

With `Cc1nc(C2CC2)ncc1Oc1ccc(NC(=O)Cc2ccccc2Cl)cc1S(N)(=O)=O` [Example 058, 2-(2-Chlorophenyl)-N-{4-[(2-cyclopropyl-4-methylpyrimidin-5-yl)oxy]-3-sulfamoylphenyl}acetamide], the half-inhibitory concentration (IC50) was 3180 nM and the Emax was determined as 73%.

`NS(=O)(=O)c1cc(NC(=O)Cc2cc(F)c(F)cc2Cl)ccc1Oc1cccc(Cl)c1` [Example 123, 2-(2-Chloro-4,5-difluorophenyl)-N-[4-(3-chlorophenoxy)-3-sulfamoylphenyl]acetamide]: the IC50 amounted to 369 nM and the Emax came to 55%.

For the molecule `NS(=O)(=O)c1cc(NC(=O)Cc2ccccc2Cl)ccc1Oc1cccc(Cl)n1` [Example 040, 2-(2-Chlorophenyl)-N-{4-[(6-chloropyridin-2-yl)oxy]-3-sulfamoylphenyl}acetamide], the half-maximal inhibitory concentration (IC50) was 238 nM and the Emax worked out at 64%.

As for `COCCOc1cccc(CC(=O)Nc2ccc(Oc3cccc(Cl)c3)c(S(N)(=O)=O)c2)c1` [Example 210, N-[4-(3-Chlorophenoxy)-3-sulfamoylphenyl]-2-[3-(2-methoxyethoxy)phenyl]acetamide], the IC50 was determined as 491 nM and the Emax worked out at 71%.

`NS(=O)(=O)c1cc(NC(=O)Cc2ccccc2Cl)ccc1Oc1cc(Cl)cnc1Cl` [Example 035, 2-(2-Chlorophenyl)-N-{4-[(2,5-dichloropyridin-3-yl)oxy]-3-sulfamoylphenyl}acetamide]: the IC50 worked out at 3570 nM and the Emax worked out at 60%.

Take `NS(=O)(=O)c1cc(NC(=O)Cc2ccccc2SC(F)(F)F)ccc1Oc1cccc(Cl)c1` [Example 090, N-[4-(3-Chlorophenoxy)-3-sulfamoylphenyl]-2-{2-[(trifluoromethyl)sulfanyl]phenyl}acetamide]: the 50% inhibitory concentration (IC50) was 442 nM and the Emax was found to be 71%.

Take `NS(=O)(=O)c1cc(NC(=O)Cc2ccccc2Cl)ccc1Oc1ccc[nH]c1=O` [Example 075, 2-(2-Chlorophenyl)-N-{4-[(2-oxo-1,2-dihydropyridin-3-yl)oxy]-3-sulfamoylphenyl}acetamide]: the IC50 was 2230 nM and the Emax is 77%.
